Data published in patent publication US20050043262A1, “Novel specific inhibitor of the cyclin kinase inhibitor p21Waf1/Cip1 and methods of using the inhibitor” (priority 2000, published 2005).

Assays:
fibronectin = assay: Fibronectin production and secretion (immunoprecipitation/immunoblot); format: cell-based, rat; conditions: VSM cells, TGF-β, maximal level in lysate at higher doses
Method: Immunoprecipitations: VSM cells were grown to confluence. After incubation under appropriate conditions, the cells were washed with ice-cold phosphate-buffered saline and immediately lysed in lysis buffer (20 mM Tris [pH7.5], 150 mM NaCl, 1 mM EDTA, 1 mM EGTA, 1% Triton X-100, 2.5 mM sodium pyrophosphate, 1 mM β-glycerolphosphate, 1 mM Na3VO4, 1 μg/ml Leupeptin, 1 mM PMSF) at 4° C. The cells were scraped off with a rubber spatula and the insoluble material removed by centrifuging at 10,000× g for 10 min at 4° C. Protein concentration was determined by A595, and lysates containing equal amounts of protein were incubated with […] anti-fibronectin antibody at 4° C. overnight. Protein A-Sepharose beads were added and the resulting mixture was incubated for an additional 2 hours at 4° C. The beads were centrifuged in a microfuge for 20 sec, and the pellet was washed 3 times with cold lysis buffer. The supernatant was decanted, gel loading buffer was added to the precipitate, and the solution was boiled for 5 min, and centrifuged. The supernatant was electrophoresed on a 7.5% SDS-polyacrylamide gel with equal volumes of sample per lane. The proteins were electrophoretically transferred to nitrocellulose and probed with fibronectin antibody.
The p21 influences on matrix protein secretion in VSM cells were determined. […]

A10 VSM cells = assay: [3H]thymidine incorporation (DNA synthesis) in A10 VSM cells; format: cell-based, rat
laminin = assay: Laminin production and secretion (immunoblot of lysate and conditioned media); format: cell-based, rat; conditions: control oligodeoxynucleotide transfected cells, TGF-β higher doses
Method: (§1) Western blots: Cells were grown to confluence in 6 cm culture dishes and serum deprived. After transfection and/or treatment with appropriate agonist, conditioned medium was removed and saved and the cells were washed with phosphate-buffered saline and lysed in lysis buffer. Both supernatant and cell lysate were normalized to the lysate protein concentrations and Western blotted as described (Weiss, R. H.; et al. Am. J. Physiol. 274: C1521-C1529; 1998).
The p21 influences on matrix protein secretion in VSM cells were determined. Levels of the matrix proteins laminin and fibronectin were examined in both TGF-β stimulated lysate and conditioned media of cells in which p21 expression had been attenuated. The cells were transfected with either antisense p21 (SEQ. ID NO.:1) (400 nM), or random sequence control (SEQ. ID NO.:3) (400 nM) oligodeoxynucleotide, and then stimulated with TGF-β at for 0.1 to 10 ng/ml for 4 hours. Conditioned media and cell lysate were collected, and both medium and lysate volumes were normalized for the protein content in total cell lysate to exclude any skewing of the data due to cell proliferation. The proteins were electrophoresed and immunoblotted with either fibronectin (after immunoprecipitation to eliminate extraneous bands which appeared in the absence of this procedure) or laminin antibody.

p21^Waf1/Cip1 [1] = assay: PMA-induced p21 level by Western blot in A431 cells; format: cell-based, human; conditions: 200 nM oligodeoxynucleotide, PMA 100 ng/ml up to 6 hours
Method: (§2) Western blots: Cells were grown to confluence in 6 cm culture dishes and serum deprived. After transfection and or treatment with appropriate agonist, the cells were washed with phosphate-buffered saline and lysed in lysis buffer and the supernatant was Western blotted as described (Weiss and Nuccitelli, 1992 J. Biol. Chem., 267, p. 5608-5613).
PMA is a potent inducer of p21^Waf1/Cip1 in a variety of different cell lines (Huang et al., 1995 Proc. Natl. Acad. Sci. US.A., 92, p. 4793-4797; Michieli et al., 1994 Cancer Res., 54, p. 3391-3395) and was employed to examine p21^Waf1/Cip1 levels after antisense transfection and confirm efficacy of translation to attenuate p21^Waf1/Cip1 levels. A431 cells were transfected with 200 nM antisense p21^Waf1/Cip1 (SEQ. ID NO.:1) or sense p21^Waf1/Cip1 oligodeoxynucleotide (SEQ. ID NO.:2). After overnight incubation in serum-free medium, the cells were stimulated with PMA (100 ng/ml) for the times indicated, lysed, and the lysates were Western blotted with p21^Waf1/Cip1 or α-actin antibody.

p21^Waf1/Cip1 [2] = assay: p21 protein level by Western blot in A10 VSM cells; format: cell-based, rat
Method: as §2, with “et al., 1998 Am.” for “and Nuccitelli, 1992”, “Physiol., 274,” for “Biol. Chem., 267,”, “C1521-C1529).” for “5608-5613).”
To determine whether antisense transfection with p21^Waf1/Cip1 antisense oligonucleotides indeed decreases p21^Waf1/Cip1 protein levels, p21^Waf1/Cip1 levels after antisense transfection were examined employing the fact that PMA is a potent inducer of p21^Waf1/Cip1 (Huang et al., 1995 Proc. Natl. Acad. Sci. U.S.A., 92, p. 4793-4797; Michieli et al., 1994 Cancer Res., 54, p. 3391-3395). Since p21^Waf1/Cip1 protein levels were induced in VSM cells between 2 and 6 hours after PMA stimulation (FIG. 4), the p21^Waf1/Cip1 levels in transfected cells after similar times of PMA stimulation were examined. […] There was no effect of the p21^Waf1/Cip1 sense (SEQ. ID NO.:2) control oligodeoxynucleotide on cellular p21^Waf1/Cip1 levels (compare with FIG. 4).
To check for specificity of protein inhibition by the antisense p21^Waf1/Cip1 oligodeoxynucleotide (SEQ. ID NO.: 1), protein levels of p21^Waf1/Cip1 and p27^Kip1 after transfection with antisense p21^Waf1/Cip1 oligodeoxynucleotide (SEQ. ID NO.:1) were examined. In these experiments the ability of antisense oligodeoxynucleotides (SEQ. ID NO.:1) to inhibit maximally stimulated CKI expression (see FIG. 4) was assessed. The cells were stimulated with PMA for 4 hours at various times after overnight serum starvation.
as §1, with “and or” for “and/or”, “(Weiss R H,” for “(Weiss, R. H.;”, “Am J Physiol 274:C1521-C1529,” for “Am. J. Physiol. 274: C1521-C1529;”
To confirm that p21 levels were increased after exposure to ionizing radiation, and that the oligonucleotides inhibit this phenomenon in A10 cells, p21 protein levels under these conditions were assayed. […] With the exception of the initial decrease in p21 levels at ½ and 1 hours, the results with the control oligonucleotides were similar to that observed in non-transfected cells.
Adriamycin is a prototypical DNA damaging agent used in the treatment of a variety of cancers. The predominantly G2 arrest seen after Adriamycin treatment has been associated with an increase in p21 levels in some cell lines (Siu W Y, et al. FEBS Lett 461:299-305, 1999). In order to determine whether similar augmentation of p21 is seen in A10 VSM cells and whether the antisense p21 oligonucleotide is inhibiting this response, these cells were treated with Adriamycin either with or without first transfecting the cells with the antisense and control oligonucleotides. Confluent VSM cells were transfected with antisense oligonucleotide to p21 or random sequence control oligonucleotide as described above. After 24 hours, the cells were exposed to Adriamycin (500 ng/ml), lysed at the indicated times after exposure, and Western blotted with p21 antibody.
Using a random sequence phosphorothioate oligodeoxynucleotide (SEQ. ID NO.:3) as a control, the effect of the antisense oligodeoxynucleotide to p21 (400 nM) on p21 and α-actin protein expression in A10 VSM cells, was examined. The lysates, normalized for protein content, were Western blotted with either p21 or α-actin antibody.

caspase-3 = assay: Caspase-3 activation (cleavage product) by Western blot in VSM cells; format: cell-based, rat; conditions: Adriamycin experiment (FIG. 19b)
Method: FIGS. 19A and B depict how Caspase-3 is activated by antisense oligonucleotide to p21 but not early after radiation or Adriamycin, as described in Example III, infra. Confluent VSM cells were transfected with oligonucleotide in the concentration indicated, left in serum-containing media overnight, and exposed to (A) ionizing radiation (12 Gy) or (B) Adriamycin where indicated. 4 hours later, activation of caspase-3 was assessed by Western blotting. The arrowhead indicates the cleavage product of caspase-3 signifying its processing as an early step in apoptosis. Wortmannin (wort) is a positive control for apoptosis. […] The experiment shown is representative of two separate experiments.
as §1, with “and or” for “and/or”, “(Weiss R H,” for “(Weiss, R. H.;”, “Am J Physiol 274:C1521-C1529,” for “Am. J. Physiol. 274: C1521-C1529;”
In order to determine whether the potentiation of ionizing radiation and Adriamycin induced DNA synthesis inhibition by p21 antisense oligonucleotides is accompanied by apoptosis, caspase-3 activation in response to ionizing radiation was examined. Caspase-3 is an effector caspase whose activation (leading to apoptosis) results in a 20 kD cleavage product which can be assessed by Western blotting (McCarthy N J, Evan G I. Curr Top Dev Biol 36:259-278, 1998). This process is an early event in a cascade of reactions which ultimately leads to apoptosis, as is evident by the fact that inactivation of caspase-3 dramatically reduces apoptosis in several cell lines (Woo M, et al. Genes Dev 12:806-819, 1998).
VSM cells were transfected with antisense or control oligonucleotides overnight and then stimulated with ionizing radiation.

A431 cells = assay: [3H]thymidine incorporation (DNA synthesis) in A431 cells; format: cell-based, human; conditions: PMA 100 ng/ml
Method: FIG. 9A-D are bar graphs showing Antisense p21^Waf1/Cip1 oligodeoxynucleotide has no significant effect DNA synthesis in PMA-inhibitable A431 cells, as described in Example II, infra. […] A431 cells were placed in serum-free medium overnight and then stimulated with (A) PDGF-BB (30 ng/ml), (B) 10% serum-containing medium, or (C) PDGF-BB or PMA (100 ng/ml) for another 8 hours before [^3H]-thymidine was added for overnight incubation. (D) A10 VSM cells were transfected with sense and antisense p21^Waf1/Cip1 oligonucleotides as above and treated similarly to (B). DNA synthesis was assessed by [^3H]-thymidine incorporation and is expressed as mean ±s.e.m. of three wells per data point. The absolute counts differ between experiments due to different confluency of the cells. The experiments shown are representative of two separate experiments.
Cell culture and DNA synthesis: Cultures of A10 and A431 cells were obtained from American Type Culture Collection (Rockville Md), were maintained as described (Weiss et al. 1998, Am. J. Physiol. 274, C1521-C1529), and were used between passages 15 and 24 or 25 and 35, respectively. The cells were growth-arrested by placing them in serum-free quiescence medium, exposed to growth factors as indicated, and [^3H]thymidine incorporation assessed as previously described (Weiss and Nuccitelli, 1992, J. Biol. Chem. 267, 5608-5613).
This A431 data is in contrast with that obtained in a variety of VSM cell lines, where cell growth was inhibited by similar oligodeoxynucleotide concentrations in cell stimulated with both PDGF-BB and serum (FIG. 9d).

TGF-β: growth factor TGF-β1 obtained from Upstate Biotechnology
fibronectin production (fibronectin): induced fibronectin production | DNA synthesis in serum-starved cells (A10 VSM cells; A10 VSM cells, TGF-β 0.1 to 10 ng/ml for 24 hours): significantly reduced | inhibitory effect of TGF-β on DNA synthesis in transfected cells (A10 VSM cells; antisense or control transfected A10 VSM cells, 10% serum, TGF-β 10 ng/ml): still present | laminin secretion (laminin): decrease laminin secretion at higher doses

5′-ATGTCCGATCCTGGTGATGTC-3′ (sense ATGTCCGATCCTGGTGATGTC; DNA, backbone not given here) [Sense p21Waf1/Cip1 control oligodeoxynucleotide, reference compound]
PMA-induced p21^Waf1/Cip1 levels (p21^Waf1/Cip1 [1]): no effect | PDGF-stimulated DNA synthesis, dose/response (A10 VSM cells; A10 VSM cells, increasing oligodeoxynucleotide concentration up to 200 nM): no effect | PMA-induced p21^Waf1/Cip1 levels (p21^Waf1/Cip1 [2]; A10 VSM cells, PMA stimulation up to 6 hours after transfection): no effect

COc1cccc2c1C(=O)c1c(O)c3c(c(O)c1C2=O)C[C@@](O)(C(=O)CO)C[C@@H]3O[C@H]1C[C@H](N)[C@H](O)[C@H](C)O1 [Adriamycin, Adriamycin (doxorubicin), reference compound]
growth inhibitory effect of Adriamycin (DNA synthesis) (A10 VSM cells; control oligonucleotide transfected VSM cells, 500 to 2000 ng/ml for 2 hours): plateaued | caspase-3 activation (caspase-3): little effect | p21 levels after Adriamycin exposure (p21^Waf1/Cip1 [2]; VSM cells, Adriamycin 500 ng/ml): increased

CCCCCCCCCCCCCC(=O)O[C@@H]1[C@@H](C)[C@@]2(O)[C@@H](C=C(CO)C[C@]3(O)C(=O)C(C)=C[C@@H]23)[C@@H]2C(C)(C)[C@]12OC(C)=O [PMA, reference compound]
growth of A431 cells with PMA (A431 cells): significant growth inhibition | p21^Waf1/Cip1 protein levels after PMA stimulation (p21^Waf1/Cip1 [2]; non-transfected VSM cells, PMA 100 ng/ml, between 2 and 6 hours): induced
